Measurements reported in patent US8623860B2, “Azetidine derivatives, pharmaceutical compositions and uses thereof” (Boehringer Ingelheim International GmbH, priority 2011, dated 2014).

Biological target: human ACC2 (Homo sapiens (Human), UniProt O00763)
Experiment: ACC2 assay, spectrophotometric 384 well assay (NADH-linked, coupled lactate dehydrogenase/pyruvate kinase reaction)
Format: biochemical
Conditions: hACC2 construct lacking the 128 N-terminal amino acids; 25° C., 340 nm, 15 minutes
Protocol: Spectrophotometric 384 Well Assay
Malonyl CoA formation by acetyl CoA carboxylases is stoichometrically linked to the consumption of ATP. ACC2 activity is measured in a NADH-linked kinetic method measuring ADP generated during the ACC reaction using a coupled lactate dehydrogenase/pyruvate kinase reaction.
For biological testing, a human ACC2 construct which lacks the 128 amino acids at the N-terminus for increased solubility (nt 385-6966 in Genbank entry AJ575592) is cloned. The protein is then expressed in insect cells using a baculoviral expression system. Protein purification is performed by anion exchange.
All compounds are dissolved in dimethyl sulfoxide (DMSO) to a concentration of 10 mM.
Assay reactions are then carried out in 384-well plates, with hACC2 in an appropriate dilution and at final assay concentrations (f.c.) of 100 mM Tris (pH 7.5), 10 mM trisodium citrate, 25 mM KHCC3, 10 mM MgCl2, 0.5 mg/ml BSA, 3.75 mM reduced L-glutathione, 15 U/ml lactate dehydrogenase, 0.5 mM phosphoenolpyruvate, 15 U/ml pyruvate kinase, compounds at different concentrations at final DMSO concentrations of 1%.
The enzymatic reaction is then started by addition of a mixture of NADH, acetyl Coenzyme A (both 200 μM f.c.) and ATP (500 uM f.c.). The decrease of the optical density (slope S) is then determined at 25° C. at a wavelength of 340 nm over 15 minutes in a spectrophotometric reader.
Each assay microtiter plate contains wells with vehicle instead of compound as controls for the non-inhibited enzyme (100% CTL; ‘HIGH’) and wells without acetyl-CoA as controls for non-specific NADH degradation (0% CTL; ‘LOW’).
The slope S is used for calculation of % CTL=(S(compound)−S(‘LOW’))/(S(‘HIGH’)−S(‘LOW’))*100. Compounds will give values between 100% CTL (no inhibition) and 0% CTL (complete inhibition).
For IC50 value determination, the sample slope in the presence of the test compound after subtraction of the low controls (S(compound)−S(‘LOW’)) are used.
An IC50 value is derived from the compound slopes at different dosages after subtraction of the low controls (S(compound)−S(‘LOW’)) by non-linear regression curve fitting (equation y=(A+((B−A)/(1+((C/x)^D))))).
In the following table the activity expressed as IC50 (μM) of compounds according to the invention is presented wherein the IC50 values are determined in the ACC2 assay as described hereinbefore. The term “Ex.” refers to the example numbers according to the following experimental section.

Sequence of human ACC2 (O00763 129-2458): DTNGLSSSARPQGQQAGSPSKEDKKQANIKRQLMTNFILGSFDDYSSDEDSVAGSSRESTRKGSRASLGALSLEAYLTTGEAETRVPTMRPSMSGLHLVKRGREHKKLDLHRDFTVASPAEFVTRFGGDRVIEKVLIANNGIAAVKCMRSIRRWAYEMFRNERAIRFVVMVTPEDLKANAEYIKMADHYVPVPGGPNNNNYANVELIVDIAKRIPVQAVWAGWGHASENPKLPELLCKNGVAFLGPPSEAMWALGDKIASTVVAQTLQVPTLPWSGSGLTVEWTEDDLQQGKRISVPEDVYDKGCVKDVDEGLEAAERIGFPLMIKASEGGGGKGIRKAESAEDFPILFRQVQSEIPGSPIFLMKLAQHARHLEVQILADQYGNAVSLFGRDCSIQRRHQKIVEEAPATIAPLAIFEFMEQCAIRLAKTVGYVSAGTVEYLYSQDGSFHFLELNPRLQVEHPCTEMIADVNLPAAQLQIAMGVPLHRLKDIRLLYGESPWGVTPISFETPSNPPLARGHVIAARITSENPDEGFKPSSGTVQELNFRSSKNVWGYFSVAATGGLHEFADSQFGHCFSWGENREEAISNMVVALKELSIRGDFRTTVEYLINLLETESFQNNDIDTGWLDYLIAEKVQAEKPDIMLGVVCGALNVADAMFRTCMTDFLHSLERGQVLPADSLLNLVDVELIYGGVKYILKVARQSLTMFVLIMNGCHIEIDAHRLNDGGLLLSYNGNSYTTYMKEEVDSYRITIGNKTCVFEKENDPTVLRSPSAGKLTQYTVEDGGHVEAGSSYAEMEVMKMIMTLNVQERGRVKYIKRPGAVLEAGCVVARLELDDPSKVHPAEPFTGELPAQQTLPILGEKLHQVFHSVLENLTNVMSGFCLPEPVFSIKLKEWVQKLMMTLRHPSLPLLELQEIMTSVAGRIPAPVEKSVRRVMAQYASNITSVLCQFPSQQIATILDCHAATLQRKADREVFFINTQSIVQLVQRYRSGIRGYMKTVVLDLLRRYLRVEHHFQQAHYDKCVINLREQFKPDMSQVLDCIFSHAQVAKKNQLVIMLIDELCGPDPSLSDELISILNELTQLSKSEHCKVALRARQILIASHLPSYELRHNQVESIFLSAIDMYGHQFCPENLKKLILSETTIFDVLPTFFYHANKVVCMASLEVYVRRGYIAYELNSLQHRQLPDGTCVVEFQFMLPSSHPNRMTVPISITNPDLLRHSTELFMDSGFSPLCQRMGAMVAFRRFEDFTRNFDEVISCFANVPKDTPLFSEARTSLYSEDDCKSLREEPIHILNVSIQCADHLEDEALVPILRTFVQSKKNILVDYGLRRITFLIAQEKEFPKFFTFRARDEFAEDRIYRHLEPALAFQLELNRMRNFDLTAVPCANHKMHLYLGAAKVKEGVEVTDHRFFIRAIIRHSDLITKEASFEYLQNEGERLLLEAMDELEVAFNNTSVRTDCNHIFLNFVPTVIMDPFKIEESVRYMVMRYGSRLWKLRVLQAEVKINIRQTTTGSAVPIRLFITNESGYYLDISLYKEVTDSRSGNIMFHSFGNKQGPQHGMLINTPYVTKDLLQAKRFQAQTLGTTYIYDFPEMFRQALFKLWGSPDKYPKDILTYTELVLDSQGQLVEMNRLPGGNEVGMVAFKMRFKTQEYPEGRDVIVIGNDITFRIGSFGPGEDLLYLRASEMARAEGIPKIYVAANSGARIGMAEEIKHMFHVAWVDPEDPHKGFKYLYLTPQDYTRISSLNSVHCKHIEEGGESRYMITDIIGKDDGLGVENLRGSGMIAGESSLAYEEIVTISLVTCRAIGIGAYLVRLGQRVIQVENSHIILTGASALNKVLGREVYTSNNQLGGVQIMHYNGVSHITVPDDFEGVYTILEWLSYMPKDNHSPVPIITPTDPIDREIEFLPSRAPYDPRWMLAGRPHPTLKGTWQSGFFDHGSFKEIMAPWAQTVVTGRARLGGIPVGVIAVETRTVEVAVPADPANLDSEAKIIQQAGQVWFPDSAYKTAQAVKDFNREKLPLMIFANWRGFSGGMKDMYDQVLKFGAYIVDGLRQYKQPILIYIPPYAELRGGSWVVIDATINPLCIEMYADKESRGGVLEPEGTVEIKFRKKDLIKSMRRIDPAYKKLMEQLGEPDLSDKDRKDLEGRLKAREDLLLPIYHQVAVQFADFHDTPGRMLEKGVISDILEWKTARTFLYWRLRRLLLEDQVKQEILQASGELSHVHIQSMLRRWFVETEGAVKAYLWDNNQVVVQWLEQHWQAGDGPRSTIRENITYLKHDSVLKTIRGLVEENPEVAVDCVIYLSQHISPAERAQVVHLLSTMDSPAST

| IC50 | SMILES |
| --- | --- |
| 510 nM | CCCOc1ccc(N2CC(c3ccc(CC(C)NC(C)=O)cc3)C2)cc1 (stereo not drawn) [Example 1.01, N-(1-(4-(1-(4-Propoxyphenyl)azetidin-3-yl)phenyl)propan-2-yl)acetamide] |
| 260 nM | CC(=O)NC(C)Cc1ccc(C2CN(c3ccc(OC4CCC4)cc3)C2)cc1 (stereo not drawn) [Example 1.02] |
| 340 nM | CC(=O)NC(C)Cc1ccc(C2CN(c3ccc(OC4CC4)cc3)C2)cc1 (stereo not drawn) [Example 1.03] |
| 630 nM | CC(=O)NC(C)Cc1ccc(C2CN(c3ccc(OCC4CC4)cc3)C2)cc1 (stereo not drawn) [Example 1.04] |
| 650 nM | CCOc1ccc(N2CC(c3ccc(CC(C)NC(C)=O)cc3)C2)cc1 (stereo not drawn) [Example 1.08] |
| 480 nM | CC(=O)NC(C)CCc1ccc(C2CN(c3ccc(OC4CC4)cc3)C2)cc1 (stereo not drawn) [Example 1.15] |
| 190 nM | CC(=O)NC(C)CCc1ccc(C2CN(c3ccc(OCC4CC4)cc3)C2)cc1 (stereo not drawn) [Example 1.17] |
| 380 nM | CC(=O)N[C@@H](C)c1ccc(C2CN(c3ccc(OCC4CC4)cc3)C2)cc1 [Example 1.23] |
| 330 nM | Cc1oncc1C(=O)N[C@@H](C)c1ccc(C2CN(c3ccc(OCC4CC4)cc3)C2)cc1 [Example 3.01, (S)—N-(1-(4-(1-(4-(cyclopropylmethoxy)phenyl)azetidin-3-yl)phenyl)ethyl)-5-methylisoxazole-4-carboxamide] |
| 1060 nM | C[C@H](NC(=O)c1cn[nH]c1)c1ccc(C2CN(c3ccc(OCC4CC4)cc3)C2)cc1 [Example 3.02] |
| 380 nM | C[C@H](NC(=O)C1CC=CC1)c1ccc(C2CN(c3ccc(OCC4CC4)cc3)C2)cc1 [Example 3.03] |
| 1730 nM | CC(=O)Nc1cncc(C(=O)NC(C)Cc2ccc(C3CN(c4ccc(OCC5CC5)cc4)C3)cc2)c1 (stereo not drawn) [Example 3.05] |
| 1070 nM | C=CCC(=O)NC(C)Cc1ccc(C2CN(c3ccc(OCC4CC4)cc3)C2)cc1 (stereo not drawn) [Example 3.06] |
| 2580 nM | CC(Cc1ccc(C2CN(c3ccc(OCC4CC4)cc3)C2)cc1)NC(=O)C1(C#N)CC1 (stereo not drawn) [Example 3.07] |
| 3070 nM | CCCC(=O)NC(C)Cc1ccc(C2CN(c3ccc(OCC4CC4)cc3)C2)cc1 (stereo not drawn) [Example 3.08] |
| 2510 nM | CC(Cc1ccc(C2CN(c3ccc(OCC4CC4)cc3)C2)cc1)NC(=O)C(C)F (stereo not drawn) [Example 3.09] |
| 890 nM | CCC(=O)NC(C)Cc1ccc(C2CN(c3ccc(OCC4CC4)cc3)C2)cc1 (stereo not drawn) [Example 3.10] |
| 1450 nM | CC(Cc1ccc(C2CN(c3ccc(OCC4CC4)cc3)C2)cc1)NC(=O)C(C)(F)F (stereo not drawn) [Example 3.11] |
| 2730 nM | CC(Cc1ccc(C2CN(c3ccc(OCC4CC4)cc3)C2)cc1)NC(=O)C(F)F (stereo not drawn) [Example 3.12] |
| 2970 nM | CC(Cc1ccc(C2CN(c3ccc(OCC4CC4)cc3)C2)cc1)NC(=O)Cc1cc[nH]c1 (stereo not drawn) [Example 3.13] |
| 1050 nM | CC(=O)Nc1nc(C)c(C(=O)NC(C)Cc2ccc(C3CN(c4ccc(OCC5CC5)cc4)C3)cc2)s1 (stereo not drawn) [Example 3.15] |
| 3050 nM | COCC(=O)NC(C)Cc1ccc(C2CN(c3ccc(OCC4CC4)cc3)C2)cc1 (stereo not drawn) [Example 3.16] |
| 2790 nM | Cc1nocc1C(=O)NC(C)Cc1ccc(C2CN(c3ccc(OCC4CC4)cc3)C2)cc1 (stereo not drawn) [Example 3.17] |

Further lines, the compound ahead of its results:

| SMILES | IC50 |
| --- | --- |
| CCCOc1ccc(N2CC(c3ccc(CC(C)NC(C)=O)cc3)C2)cn1 (stereo not drawn) [Example 1.05] | 900 nM |
| CC(=O)NC(C)Cc1ccc(C2CN(c3cnc(OC4CCC4)nc3)C2)cc1 (stereo not drawn) [Example 1.06] | 3810 nM |
| CC(=O)NC(C)Cc1ccc(C2CN(c3cnc(NC4CCC4)nc3)C2)cc1 (stereo not drawn) [Example 1.07] | 5630 nM |
| CC(=O)NC(C)Cc1ccc(C2CN(c3ccc(C(C)(C)C)cc3)C2)cc1 (stereo not drawn) [Example 1.09] | 2730 nM |
| CC(=O)NC(C)Cc1ccc(C2CN(c3ccc4ncccc4c3)C2)cc1 (stereo not drawn) [Example 1.10] | 8100 nM |
| CCCOc1ccc(N2CC(c3ccc(CC(C)NC(C)=O)cc3)C2)c(OC)c1 (stereo not drawn) [Example 1.11] | 600 nM |
| CCCOc1cc(N2CC(c3ccc(CC(C)NC(C)=O)cc3)C2)ccn1 (stereo not drawn) [Example 1.12] | 610 nM |
| CC(=O)NC(C)Cc1ccc(C2CN(c3ccc4c(c3)OCCO4)C2)cc1 (stereo not drawn) [Example 1.13] | 950 nM |
| CC(=O)NC(C)CCc1ccc(C2CN(c3ccc4c(c3)OCCO4)C2)cc1 (stereo not drawn) [Example 1.14] | 670 nM |
| CCOc1ccc(N2CC(c3ccc(CCC(C)NC(C)=O)cc3)C2)cc1 (stereo not drawn) [Example 1.16] | 410 nM |
| CC(=O)NC(C)CCc1ccc(C2CN(c3cccc(OC(C)C)c3)C2)cc1 (stereo not drawn) [Example 1.18] | 3180 nM |
| CCOc1ccc(N2CC(c3ccc(C(C)NC(C)=O)cc3)C2)cc1 (stereo not drawn) [Example 1.19] | 1130 nM |
| CC(=O)NC(C)c1ccc(C2CN(c3ccc4c(c3)OCCO4)C2)cc1 (stereo not drawn) [Example 1.20] | 490 nM |
| CC(=O)NC(C)c1ccc(C2CN(c3ccc(OC4CCCC4)cc3)C2)cc1 (stereo not drawn) [Example 1.21] | 340 nM |
| CCC(C)Nc1ncc(N2CC(c3ccc(C(C)NC(C)=O)cc3)C2)cn1 (stereo not drawn) [Example 1.22] | 2080 nM |
| CC(=O)N[C@@H](C)c1ccc(C2CN(c3ccc(OC4CCC4)cc3)C2)cc1 [Example 1.24] | 1630 nM |
| CC(=O)N[C@@H](C)c1ccc(C2CN(c3ccc(OC4CC4)cc3)C2)cc1 [Example 1.25] | 540 nM |
| CCCOc1ccc(N2CC(c3ccc([C@H](C)NC(C)=O)cc3)C2)cc1 [Example 1.26] | 510 nM |
| CC(=O)N[C@@H](C)c1ccc(C2CN(c3ccc4c(c3)OCCO4)C2)cc1 [Example 1.27] | 170 nM |
| CCOc1cccc(N2CC(c3ccc([C@H](C)NC(C)=O)cc3)C2)c1 [Example 1.28] | 680 nM |
| CC(=O)N[C@@H](C)c1ccc(C2CN(c3ccc4c(c3)OCCCO4)C2)cc1 [Example 1.29] | 780 nM |
| CC(=O)NC(C)Cc1ccc(C2CN(c3ncc(OCC4CC4(F)F)cc3F)C2)cc1 (stereo not drawn) [Example 1.30] | 740 nM |

| SMILES | IC50 |
| --- | --- |
| CC(=O)N[C@@H](C)c1ccc(C2CN(c3ccc(OCC4CC4(F)F)cn3)C2)cc1 (stereo partly drawn) [Example 1.31] | 600 nM |
| CC(=O)N[C@@H](C)c1ccc(C2CN(c3ccnc(N4CCOCC4)n3)C2)cc1 [Example 1.32] | 9040 nM |
| CC(=O)N[C@@H](C)c1ccc(C2CN(c3ncc(OCC4CC4(F)F)cn3)C2)cc1 (stereo partly drawn) [Example 1.33] | 180 nM |
| CC(=O)N[C@@H](C)c1ccc(C2CN(c3ccc(OCCCF)cn3)C2)cc1 [Example 1.34] | 830 nM |
| CC(=O)N[C@@H](C)c1ccc(C2CN(c3ncc(OCC4CC4(F)F)cc3F)C2)cc1 (stereo partly drawn) [Example 1.35] | 180 nM |
| CC(=O)NC(C)Cc1ccc(C2CN(c3ncc(Br)cn3)C2)cc1 (stereo not drawn) [Example 2.01, N-(1-(4-(1-(5-bromopyrimidin-2-yl)azetidin-3-yl)phenyl)propan-2-yl)acetamide] | 8560 nM |
| CCCc1cnc(N2CC(c3ccc(CC(C)NC(C)=O)cc3)C2)nc1 (stereo not drawn) [Example 2.02] | 3790 nM |
| CC(=O)NC(C)Cc1ccc(C2CN(c3ccc(-c4ccc(Cl)cc4)nn3)C2)cc1 (stereo not drawn) [Example 2.03] | 7020 nM |
| CC(=O)NC(C)CCc1ccc(C2CN(c3ncc(C4CC4)cn3)C2)cc1 (stereo not drawn) [Example 2.04] | 2560 nM |
| CC(=O)NC(C)CCc1ccc(C2CN(c3ncc4nc(-c5ccccc5)oc4n3)C2)cc1 (stereo not drawn) [Example 2.05] | 810 nM |
| CC(=O)NC(C)CCc1ccc(C2CN(c3cccc(C(F)(F)F)n3)C2)cc1 (stereo not drawn) [Example 2.06] | 1420 nM |
| CC(=O)N[C@@H](C)c1ccc(C2CN(c3ncc4nc(-c5ccccc5)oc4n3)C2)cc1 [Example 2.07] | 340 nM |
| COc1ccc(-c2cnc(N3CC(c4ccc([C@H](C)NC(C)=O)cc4)C3)nc2)cc1 [Example 2.08] | 320 nM |
| CC(=O)N[C@@H](C)c1ccc(C2CN(c3ccc(C(F)(F)F)cn3)C2)cc1 [Example 2.09] | 450 nM |
| CC(=O)N[C@@H](C)c1ccc(C2CN(c3cccc(C(F)(F)F)n3)C2)cc1 [Example 2.10] | 470 nM |
| CC(=O)N[C@@H](C)c1ccc(C2CN(c3nnc(-c4ccccc4)s3)C2)cc1 [Example 2.11] | 7760 nM |
| CC(=O)N[C@@H](C)c1ccc(C2CN(c3ncc(C4CC4)cn3)C2)cc1 [Example 2.12] | 420 nM |
| CC(=O)N[C@@H](C)c1ccc(C2CN(c3ncc4nc(-c5ccsc5)oc4n3)C2)cc1 [Example 2.13] | 690 nM |
| CC(=O)N[C@@H](C)c1ccc(C2CN(c3ncc(C(F)(F)F)cn3)C2)cc1 [Example 2.15] | 850 nM |
| CC(=O)Nc1nc(C)c(C(=O)N[C@@H](C)c2ccc(C3CN(c4ccc(OCC5CC5)cc4)C3)cc2)s1 [Example 3.04] | 250 nM |
| CC(Cc1ccc(C2CN(c3ccc(OCC4CC4)cc3)C2)cc1)NC(=O)CF (stereo not drawn) [Example 3.14] | 1770 nM |
